In PMC4157028, “HPTLC Analysis, Antioxidant and Antigout Activity of Indian Plants” (Iranian Journal of Pharmaceutical Research : IJPR, 2014) one finds IC50 data, which are given here for one compound.

Structures are written as SMILES. Values after ≈ are worked out from the molar mass of the structure shown.

The target in the test is T1, cow milk xanthine oxidase.
T1 construct: gene XDH; commercial enzyme from Himedia Laboratories; abstract says cow milk, reagent list says source: microorganisms
The test is described as follows: spectrophotometric uric acid formation at […] nm. Conditions: xanthine substrate (150 mM stock as printed, 2 mL added), phosphate buffer pH 7.5, 25 °C, 15 min preincubation, 30 min reaction. In kind it is biochemical.

As for `O=c1[nH]cnc2[nH]ncc12` [Allopurinol], the IC50 (commonly the point on the concentration scale where inhibition reaches its midpoint) stood at 6.75 µg/mL (≈ 49.6 µM).
